Measurements: PMC10215400 (Antibiotics, 2023)

Assays:
[1] = biological target: T1, KPC-2 β-lactamase D179Y variant (Klebsiella pneumoniae, UniProt Q93LQ9, D178Y); type: binding
[2] = biological target: T2, KPC-2 β-lactamase D179N variant (Klebsiella pneumoniae, UniProt Q93LQ9, D178N); assay: time-based mass spectrometry ([…]); type: binding
KPC-2 β-lactamase = KPC-2 β-lactamase (Klebsiella pneumoniae, UniProt Q93LQ9); assay: stopped-flow hydrolysis progress curves with purified enzyme; type: biochemical
[3] = biological target: T2, KPC-2 β-lactamase D179N variant; assay: stopped-flow hydrolysis progress curves with purified enzyme; timed mass spectrometry; type: biochemical
[4] = biological target: T1, KPC-2 β-lactamase D179Y variant; assay: time-based mass spectrometry of acyl-complex ([…]); no turnover in stopped-flow; type: binding

T1 sequence (Q93LQ9 25-293 D178Y): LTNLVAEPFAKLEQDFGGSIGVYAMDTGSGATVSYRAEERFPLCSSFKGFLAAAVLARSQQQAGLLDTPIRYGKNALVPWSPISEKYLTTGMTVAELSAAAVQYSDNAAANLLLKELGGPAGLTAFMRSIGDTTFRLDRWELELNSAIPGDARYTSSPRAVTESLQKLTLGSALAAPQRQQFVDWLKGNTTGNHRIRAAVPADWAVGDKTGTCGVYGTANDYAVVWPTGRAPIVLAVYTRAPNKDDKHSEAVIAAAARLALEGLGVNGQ
T2 sequence (Q93LQ9 25-293 D178N): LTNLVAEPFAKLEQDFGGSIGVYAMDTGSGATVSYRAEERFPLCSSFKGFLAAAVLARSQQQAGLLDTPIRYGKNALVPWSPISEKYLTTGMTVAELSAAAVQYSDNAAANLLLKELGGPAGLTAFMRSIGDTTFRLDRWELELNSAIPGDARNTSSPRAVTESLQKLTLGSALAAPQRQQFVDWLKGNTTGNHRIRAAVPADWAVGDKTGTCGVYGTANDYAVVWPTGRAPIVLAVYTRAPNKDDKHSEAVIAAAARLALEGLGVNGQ
Sequence of KPC-2 β-lactamase (Q93LQ9 25-293 limits assumed): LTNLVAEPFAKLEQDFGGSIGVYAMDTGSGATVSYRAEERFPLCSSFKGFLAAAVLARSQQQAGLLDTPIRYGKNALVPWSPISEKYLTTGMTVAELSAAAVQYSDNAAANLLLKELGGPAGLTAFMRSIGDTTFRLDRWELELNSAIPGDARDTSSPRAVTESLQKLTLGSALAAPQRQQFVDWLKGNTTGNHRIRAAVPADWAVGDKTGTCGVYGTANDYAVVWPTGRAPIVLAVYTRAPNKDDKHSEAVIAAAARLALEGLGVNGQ

SMILES | time-based mass spectrometry of acyl-complex (1:1) [1] | time-based mass spectrometry (1:1) [2] | stopped-flow hydrolysis progress curves with purified enzyme (KPC-2 β-lactamase) | stopped-flow hydrolysis progress curves with purified enzyme; timed mass spectro [3] | time-based mass spectrometry of acyl-complex (1:1); no turnover in stopped-flow [4]
NC(=O)[C@@H]1CC[C@@H]2CN1C(=O)N2OS(=O)(=O)O [avibactam] | relebactam is slower to form an acyl complex with the D179Y variant compared to avibactam | Relebactam and avibactam behaved similarly vs. the D179N variant. | – | – | –
C[C@@H](O)[C@H]1C(=O)N2C(C(=O)O)=C(SCCN=CN)C[C@H]12 [imipenem] | – | – | KPC-2 (blue line) and the D179N variant (yellow line) both hydrolyzed imipenem | KPC-2 (blue line) and the D179N variant (yellow line) both hydrolyzed imipenem | acyl-complexes with imipenem and ceftazidime with the D179N variant was captured less often compared to the D179Y variant
O=C(NC1CCNCC1)[C@@H]1CC[C@@H]2CN1C(=O)N2OS(=O)(=O)O [relebactam] | relebactam is slower to form an acyl complex with the D179Y variant compared to avibactam | – | – | – | –
